Reference: patent US20230329994A1, “Surfactant Containing Formulation of Pseudo-Ceramides” (Symrise AG, priority 2020, published 2023)

Assays:
[1] = Solubility: visual appearance of shampoo formulations; type: physicochemical; details: 0.1 in shampoo, surfactant approx. 14%; after preparation, after 3 days at 5° C. and 3 days at room temperature
Protocol: The solubility of the pseudoceramide CeramideBio in shampoo is evaluated in comparison to Ceramide 2 and Ceramide 3.
Shampoo Formulations: • Surfactant content: Approx. 14% 01
The shampoo formulations were prepared as follows: Phase A components were blended by gentle stirring; the process was stopped, when foaming starts.
The ceramides/pseudoceramide were predispersed in polyglyceryl-4-caprate and heated up to 90° C. The ceramides/pseudoceramide were melted and finely dispersed. Ucare Polymer JR-400 and water were added and the mixture was heated up to 90° C. again and stirred for 10 minutes.
Phases B, C and D were added to phase A one after the other by stirring. After that, the mixture was stirred slowly with a vane stirrer until the solution was homogeneous. At last Phase E was added by stirring with a vane stirrer. The pH value was adjusted to about 5.4 to 5.8.
The visual appearance of the shampoo formulations was evaluated after preparation, after 3 days storage at 5° C. and 3 day at room temperature.
The visual appearance of the shampoo formulations is depicted in FIG. 1. From left to the right: Sample CeramideBio (01_B), Ceramide 2 (02_B), Ceramide 3 (03_B).

[2] = Hair shine/luster evaluation (SAMBA system)
Protocol: The hair luster was measured with a shampoo formulation according to the present invention containing pseudoceramide CeramideBio (shampoo, 1.0%), a shampoo formulation containing Ceramide 2 (shampoo, 1%) and a Placebo (shampoo).
Principle: Hair luster test analyzes the light reflection from the hair surface and other interactions of the incident light with the hair. The measurement is made by using SAMBA system. The results are expressed by luster: parameter calculated from values of shine, chroma and diffused light to express the observer perception of the gloss effect. The higher is the value, the best impression of the observer regarding gloss effect of the hair. […]

[3] = Swelling test / hydrophobicity of hair fibers; details: for diameter variation of the hair after 180 s: 1× bleached tresses
Protocol: The swelling of the hair was measured with a conditioning formulation according to the present invention containing pseudoceramide CeramideBio (leave-on, 0.5 and 0.05%), a conditioning formulation containing Ceramide 2 (leave-on, 0.5% and 0.05%) and a Placebo (leave-on).
Principle: Through diameter measurements it is possible to determine the level of swelling of a hair fiber over time when in contact with water. The swelling test evaluates the action of materials in forming a hydrophobic film on hair surface in order to prevent humidity from penetrating the hair, which in turn provokes the hair diameter variation. The laser measures the variation in the fiber diameter as it absorbs water over a pre-determined time. According to the fiber condition or the film covering its surface, the level of swelling may change. The more damaged the hair, the more hydrophilic it is, since most of the hair damages take the lipids, ceramides and other hydrophobic substances away from the hair, and, consequently, more swelling is noticed. Parameter measured: variation in hair diameter (%).
Swelling Test: • 3 Caucasian hair tresses (2.5 g, 25 cm, 1× bleached) were cleaned with a sodium laureth sulfate solution (SLES) (10%) for 1 minute; • Test samples (see above) were applied to each tress (0.25 ml of sample; massaging for 1 minute); • Tresses were left for drying at controlled environment (22±2° C.; 50±5% RH) overnight; • 45 fibers from each treatment were collected randomly and fixed in plastic tabs one by one; • Swelling test was performed during 180 s; • Variation on fiber's diameter was calculated; • Comparisons among treatments were performed using one-way variance analysis (ANOVA), followed by Tukey's honestly significant difference (HSD) test, at a 95% confidence interval.

SMILES	recrystallization in shampoo formulation (visual appearance) [1]	effect on hair luster ([2]; shampoo formulation containing 1.0%)	luster of the hair compared to shampoo formulation with Ceramide 2 ([2]; shampoo, 1.0%, applied 5 times, 3× bleached tresses)	diameter variation of the hair after 180 s compared to conditioning formulation with Ceramide 2 ([3]; leave-on conditioning formulation)	diameter variation of the hair after 180 s ([3]; leave-on conditioning formulation, higher concentration (0.5%)) [%]	diameter variation of the hair after 180 s ([3]; leave-on conditioning formulation, lower concentration (0.05%)) [%]	hair fiber swelling / hydrophobicity versus non-treated hair, placebo and leave-on with 0.05% Ceramide 2 ([3]; leave-on formulation containing 0.05%)
CCCCCCCCCCCCCCCCCC(=O)N[C@@H](CO)[C@H](O)CCCCCCCCCCCCCCC [Ceramide 2]	showed recrystallization						
CCCCCCCCCCCCCCCCOC(=O)[C@@H]1C[C@@H](O)CN1C(=O)CCCCCCCCCCCCCCC [CeramideBio, Cetylhydroxyproline palmitamide]	without recrystallization	able to increase hair luster	higher	smaller	15.90	14.44	statistically decreasing its swelling
CCCCCCCCCCCCCCCCCCCCCCCC(=O)N[C@@H](CO)[C@H](O)C(O)CCCCCCCCCCCCCC (stereo partly drawn) [Ceramide 3]	showed recrystallization						
